Results published in publication PMC11815855, “Exploring the Structure–Activity Relationships of Albumin-Targeted Picoplatin-Based Platinum(IV) Prodrugs” (Inorganic Chemistry, 2025).
Marks after values point to notes of the source that are not given here.

How the values were obtained:
[1] = test system: CT26 colon cancer cells; assay: Colony formation (clonogenic) assay, CT26, 7 days; assay type: cell-based, murine; conditions: 7 days drug exposure
From the text: (§1) For the cell culture assays, the human ovarian model A2780/wt and its corresponding cisplatin-resistant subline A2780/cis (both purchased from Sigma and cultured in RPMI1640 medium), the human colorectal cancer model HCT116 (cultured in McCoy′s medium), and the murine (Balb/c) colorectal cancer model CT26 (cultured in DMEM/F-12 (1:1) medium) were used. The colon cancer models were purchased from the American Type Culture Collection (ATCC). The media were supplemented with 10% FCS (purchased from PAA Linz, Austria). To maintain drug resistance of A2780/cis, the subline was cultivated under continuous selection pressure (1 μM cisplatin). The selection drug was removed 1 week before the experiments were performed. Cell cultures were maintained at 37 °C in humidified atmosphere containing 5% CO2. All cultures were free of antibiotics and regularly checked for mycoplasma contamination. All cell culture media and reagents were purchased from Sigma-Aldrich Austria. All investigated drugs were dissolved in either water (oxaliplatin, carboplatin) or DMF before further dilution in cell culture medium. DMF concentrations were always below 0.5%.
(§2) Then, cells were exposed to the indicated drugs in rising concentrations. After 7 days, the cells were fixed with methanol for 20 min at 4 °C and stained with crystal violet 5 (0.01% in PBS). The fluorescence of the crystal violet was detected by the Typhoon scanner (Typhoon TRIO Variable Mode Imager, GE Healthcare Life Sciences) after excitation by the red laser (633 nm). Quantification was done with ImageJ software.

[2] = test system: HCT116 colon cancer cells; assay: MTT-based cell viability assay, HCT116, 72 h; design: species or system human; conditions: 72 h drug exposure
From the text: as §1
(§3) Subsequently, the cells were incubated with the tested compounds in rising concentrations. […] The received data were visualized as dose–response curves by Graph Pad Prism 5 software (Graph Pad software, USA).

[3] = test system: CT26 colon cancer cells; assay: MTT-based cell viability assay, CT26, 72 h; design: species or system murine; conditions: 72 h drug exposure
From the text: as §1, §3

[4] = Interaction of platinum(II) complexes with 10 equiv GSH, NMR; assay type: physicochemical; conditions: 1 mM complex, 10% D2O/90% PBS pH 7.4, 37 °C
Protocol: The amount of remaining platinum(II) complex was monitored via ^1H NMR spectroscopy and, particularly for ^15N-cisplatin, via [^1H, ^15N] heteronuclear single quantum coherence (HSQC) NMR spectroscopy (Figure 1).[47]
(§4) An 1 mM solution of Pt compound was incubated in a mixture of 90% PB or PBS (150 mM, pH 7.4) and 10% D2O at 37 °C with and without the addition of 10 equiv GSH. The reaction was monitored with ^1H or [^1H, ^15N] […] The reference spectrum was shifted with a value of −0.5 ppm compared to the original ppm value calibrated to D2O before overlay with a spectrum at a single time point. In case of ^15N-cisplatin, the cross-peak of the parental complex in [^1H, ^15N] HSQC at time point 0 h was used as reference, and spectral overlay was achieved by shifting the 2D spectra at all given time points (2, 4, 6, and 8 h) with vertical steps of +14 ppm compared to the original ^15N NMR ppm value of the parental complex.

[5] = test system: A2780/wt ovarian cancer cells; assay: MTT-based cell viability assay, A2780/wt, 72 h; design: species or system human; conditions: 72 h drug exposure, means of independent experiments
From the text: as §1, §3

[6] = Stability of platinum(II) complexes in PBS or PB, NMR; assay type: physicochemical; conditions: 1 mM, pH 7.4, 37 °C, 8 h incubation, no GSH
Protocol: as §4

[7] = test system: HCT116 colon cancer cells; assay: Colony formation (clonogenic) assay, HCT116, 7 days; assay type: cell-based, human; conditions: 7 days drug exposure, clonogenic assay
From the text: as §1, §2

[8] = test system: A2780/cis ovarian cancer cells; assay: MTT-based cell viability assay, A2780/cis (cisplatin-resistant), 72 h; design: species or system human; conditions: for IC50: 72 h drug exposure, cisplatin-resistant subline, means of independent experiments; for IC50 / IC50 in A2780/cis compared to A2780/wt: MTT-based assay; for IC50 in A2780/cis compared to A2780/wt / RF (resistance factor): 72 h; for RF (resistance factor): fold-change between IC50 values of A2780/cis:A2780/wt
From the text: as §1, §3

[9] = test system: CT26 tumors; assay: Anticancer activity in vivo, CT26-bearing Balb/c mice; conditions: i.v. on days 3 and 10, dose equimolar to 20 mg/kg picoplatin
Protocol: Ten-week-old Balb/c mice were purchased from Envigo Laboratories (San Pietro al Natisone, Italy). […] Animals were controlled for distress development every day, and tumor size was assessed regularly by caliper measurement. Tumor volume was calculated using the formula: (length × width^2)/2.
CT26 cells (5 × 10^5 in serum-free medium) were injected subcutaneously into the right flank of male Balb/c mice. Therapy was started when tumor nodules were palpable (day 3). […] Mice were sacrificed by cervical dislocation in the case of a tumor length >20 mm, tumor ulceration, or other signs for distress.

[10] = Reduction of platinum(IV)-succinimide complexes with 10 equiv GSH, UHPLC; assay type: physicochemical; conditions: 1 mM, 150 mM PB pH 7.4, 20 °C, 6 h
From the text: It is well-known that platinum(IV) complexes derived from, e.g., oxaliplatin or carboplatin, bearing leaving groups other than chlorido ligands, have distinctly slower reduction rates compared to cisplatin(IV) analogs.[54] This can be explained by a bridging interaction between the chlorido ligands and the reducing agent, which facilitates electron transfer to the platinum center.[55] […] The reductive behavior was also investigated in the presence of 10 equiv GSH in coherence with the above investigated interactions of platinum(II) with GSH (Figure S8).
(§5) PB (150 mM, pH 7.4) containing 1 mM Pt compound was incubated at 20 °C with and without the addition of 10 equiv L-ascorbic acid or reduced GSH. The reaction was monitored on a Thermo Scientific Dionex UltiMate 3000 UHPLC-system using a Waters Acquity UPLC BEH C18 1.7 μm, 3.0 × 50 mm column. Milli-Q water containing 0.1% formic acid and acetonitrile containing 0.1% formic acid were used as eluents. A gradient of 5–95% over 5 min was used with a flow of 0.6 mL/min. To evaluate the reaction process, we used the peak area of the parental complex.

[11] = Reduction kinetics of platinum(IV)-succinimide complexes with AA, UHPLC; assay type: physicochemical; conditions: 1 mM, 10 equiv AA, 150 mM PB pH 7.4, 20 °C, 6 h
Protocol: Platinum(IV) prodrugs need to be reduced in the tumor environment to release the cytotoxic platinum(II) complexes. Thus, the reduction properties of Pico-Succ, PicoCarbo-Succ, and PicoOxali-Succ were investigated. As mentioned above, succinimide complexes were used for these studies to avoid competitive hydrolysis of the maleimide moiety. All platinum(IV)-succinimide complexes were incubated in both the absence and presence of a 10-fold excess L-ascorbic acid (AA) in PB at pH 7.4 and 20 °C over 6 h. The amount of remaining intact platinum(IV) complex at given time points was measured via ultrahigh performance liquid chromatography (UHPLC), as shown in Figure 2. Pico-Succ was reduced extremely fast, with only traces of the original complex left in the first measurement after ∼5 min of incubation. Even with equimolar amounts of AA, 90% of Pico-Succ was already reduced after ∼5 min (Figure S6). This level of reductive instability is exceptionally high, even when compared to the “fast” reducing cisplatin(IV) prodrugs, which show a complete conversion after ∼10 h in the presence of 10 equiv AA.[41],[53]
as §5

[12] = target: albumin (Bos taurus, UniProt P02769); assay: Albumin binding and stability in phosphate-buffered FCS, SEC-ICP-MS; conditions: 50 μM in FCS (150 mM PB, pH 7.4), 37 °C, over 25 h; 195Pt only in LMWF
Chain of albumin (P02769 25-607): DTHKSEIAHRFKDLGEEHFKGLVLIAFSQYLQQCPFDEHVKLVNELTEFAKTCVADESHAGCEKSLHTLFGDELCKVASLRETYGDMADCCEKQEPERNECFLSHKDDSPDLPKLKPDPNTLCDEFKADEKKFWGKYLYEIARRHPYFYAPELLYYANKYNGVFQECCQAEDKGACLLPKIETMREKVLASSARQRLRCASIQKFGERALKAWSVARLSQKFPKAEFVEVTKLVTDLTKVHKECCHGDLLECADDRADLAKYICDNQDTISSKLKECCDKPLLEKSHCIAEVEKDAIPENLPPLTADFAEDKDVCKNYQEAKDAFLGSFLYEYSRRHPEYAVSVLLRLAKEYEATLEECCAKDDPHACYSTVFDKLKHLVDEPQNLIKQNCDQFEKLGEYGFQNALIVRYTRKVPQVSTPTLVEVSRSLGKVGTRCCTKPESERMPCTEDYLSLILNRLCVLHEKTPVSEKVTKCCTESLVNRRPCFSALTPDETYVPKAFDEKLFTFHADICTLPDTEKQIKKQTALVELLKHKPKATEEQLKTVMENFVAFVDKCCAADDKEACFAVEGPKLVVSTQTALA
Protocol: FCS was purchased from Sigma-Aldrich and buffered with 150 mM phosphate pH 7.4 in order to guarantee a stable pH. The platinum(IV) complexes were dissolved in 150 mM PB (pH 7.4) at a concentration of 5 mM and diluted 1:100 in buffered serum to obtain a final concentration of 50 μM. […] Between each sample, a pure water blank was measured. […] Oxygen (purity 5.5, Messer Austria GmbH, Gumpoldskirchen, Austria) was used as the reaction gas.

[13] = Reduction with 10 equiv AA at pH 6.0 and 37 °C, UHPLC; assay type: physicochemical; conditions: 700 μM, 50 mM PB pH 6.0, 37 °C, 4 h
From the text: (§6) To explain the rather unusual in vivo findings, especially with respect to Pico-Mal, we hypothesized that inefficient reductive release of the platinum(II) core from albumin due to steric hindrance of the 2-picoline could provide a plausible explanation for the lack of antitumor activity despite a favorable pharmacokinetic profile. […] To gain insights into whether the molecular weight and thus steric demands of the reducing agent impact the reduction of picoplatin(IV) derivatives, Pico-Succ and the reference complex Cis-Succ were analyzed in the presence of cytochrome C (CytC; ∼12,000 g/mol) or AA (176 g/mol). Therefore, Pico-Succ and Cis-Succ (for synthesis and ^1H NMR characterization, see experimental part and Scheme S1) were coincubated at pH 6.0 with 0.1 equiv CytC[60] and 10 equiv reduced NADH or with 10 equiv AA at 37 °C over 4 h, and the reduction kinetics were compared relatively. The amount of remaining intact platinum(IV) complex at given time points was measured via UHPLC (Figure 6). […]
(§7) PB (50 mM, pH 6.0) containing 700 μM Pt compound was incubated at 37 °C with the addition of 0.1 equiv horse heart CytC and 10 equiv reduced NADH or with 10 equiv L-ascorbic acid. The reaction was monitored on a Thermo Scientific Dionex UltiMate 3000 UHPLC-system using a Waters Acquity UPLC BEH peptide C18 1.7 μm 2.1 × 100 mm column. […]

[14] = target: T1, horse heart CytC (Equus caballus, UniProt P00004); assay: Reduction with cytochrome C and NADH, UHPLC; assay type: biochemical; conditions: 700 μM, 0.1 equiv CytC and 10 equiv NADH, 50 mM PB pH 6.0, 37 °C
T1 construct: 0.1 equiv horse heart CytC; from tissue; host or cells: horse heart
T1 sequence (P00004 whole entry): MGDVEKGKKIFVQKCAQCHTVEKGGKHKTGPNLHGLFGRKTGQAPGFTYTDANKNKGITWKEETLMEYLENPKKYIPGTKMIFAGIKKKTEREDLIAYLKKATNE
From the text: as §6, §7

## Cc1ccccn1.N.O=C1[O][Pt][O]C(=O)C12CCC2 [PicoCarbo, (SP-4-4)[(Ammine)(cyclobutane-1,1-dicarboxylato)(2-methylpyridine)platinum(II)]]
[1]
  IC50: 26.3 µM
[2]
  IC50: > 100 µM
[3]
  IC50: 74.5 µM
[4]; 8 h, 1H NMR
  intact platinum(II) complex left after 8 h with GSH: ~90%
[5]
  IC50: > 100 µM
[6]
  complex left in 10% D2O/90% PBS: > 95%
[7]
  IC50: 90 µM
[8]
  IC50: > 100 µM

## CC(=O)[O][Pt]1([O]C(=O)NCCN2C(=O)C=CC2=O)[O]C(=O)C2(CCC2)C(=O)[O]1.Cc1ccccn1.N [PicoCarbo-Mal, (OC-6-21)[Acetato(ammine)(cyclobutane-1,1-dicarboxylato)(1-(2-isocyanatoethyl)-1H-pyrrole-2,5-dione)(2-methylpyridine)platinum(IV)]]
[9]
  impact on tumor growth: significantly inhibited tumor growth

## CC(=O)[O][Pt]1([O]C(=O)NCCN2C(=O)CCC2=O)[O]C(=O)C2(CCC2)C(=O)[O]1.Cc1ccccn1.N [PicoCarbo-Succ, (OC-6-21)[Acetato(ammine)(cyclobutane-1,1-dicarboxylato)(1-(2-isocyanatoethyl)pyrrolidine-2,5-dione)(2-methylpyridine)platinum(IV)]]
[10]
  reduction with 10 equiv GSH over 6 h: no notable reduction
[1]
  IC50: > 100 µM
[2]
  IC50: > 100 µM
[3]
  IC50: > 100 µM
[5]
  IC50: > 100 µM
[7]
  IC50: > 100 µM
[11]
  intact platinum(IV) complex left after 6 h with AA: ~90%
[8]
  IC50: > 100 µM

## CC(=O)[O][Pt]1([O]C(=O)NCCN2C(=O)CCC2=O)[O]C(=O)C(=O)[O]1.Cc1ccccn1.N [PicoOxali-Succ, (OC-6-21)[Acetato(ammine)(1-(2-isocyanatoethyl)pyrrolidine-2,5-dione)(2-methylpyridine)(oxalato)platinum(IV)]]
[10]
  reduction with 10 equiv GSH over 6 h: no notable reduction
[1]
  IC50: > 100 µM
[2]
  IC50: > 100 µM
[3]
  IC50: > 100 µM
[5]
  IC50: > 100 µM
[12]
  albumin conjugation: no albumin conjugation
[7]
  IC50: > 100 µM
[11]
  intact platinum(IV) complex left after 6 h with AA: ~70%
[8]
  IC50: > 100 µM

## Cc1ccccn1.N.O=C1[O][Pt][O]C1=O [PicoOxali]
[1]
  IC50: 7.26 µM
[2]
  IC50: > 100 µM
[3]
  IC50: 33.7 µM
[5]
  IC50: 33.4 µM
[6]
  complex left in 10% D2O/90% PB: > 90%
  complex left in 10% D2O/90% PBS: readily degraded
[7]
  IC50: 15.8 µM
[8]
  IC50 in A2780/cis compared to A2780/wt: 1.4 fold
  IC50: 46 µM
  RF (resistance factor): 1.4^ns

## [15NH3].[15NH3].[Cl][Pt][Cl] [^15N-cisplatin, cis-[PtCl2(^15NH3)2]]
[4]; 2 h, [1H,15N] HSQC NMR
  platinum(II) complex left after 2 h with GSH: ~20%
[4]; 4 h
  platinum(II) complex reacted with GSH after 4 h: nearly complete reaction
[6]
  complex left in 10% D2O/90% PBS: > 95%

## N.N.[Cl][Pt][Cl] [cisplatin, reference compound]
[1]
  IC50: 0.46 µM
[2]
  IC50: 3.15 µM
[3]
  IC50: 2.17 µM
[5]
  IC50: 1.54 µM
[7]
  IC50: 0.82 µM
[8]
  IC50 in A2780/cis compared to A2780/wt: 5.1 fold
  IC50: 7.81 µM
  RF (resistance factor): 5.1****

## (OC-6-44)[Acetatodiamminedichlorido[2-(2,5-dioxopyrrolidin-1-yl)butyl)carbamato]platinum(IV)] [Cis-Succ, reference compound]
[13]
  reduction with AA after 4 h: ~40%
[14]
  time to complete reduction with CytC: 4 h
